The subject of data set [1] is heart rate response to isoproterenol (β-adrenergic). Kind of data set: Heart rate response to isoproterenol in rats (initial drug screening). The format is in vivo, male Spraque-Dawley rats. The following applies: 6 mg/kg i.p.; for resting heart rate prior to administration of isoproterenol: mean ± SEM. The text has this: Initial Drug Screening Protocol. Thirty-two male Spraque-Dawley rats (Blue Spruce Farms) initially weighing 300-450 gm were divided into seven different groups, each for a different drug to be tested: 12(n=4), 14(n=4), 17(n=5), 13(n=4) and 18(n=3), corresponding to the designated compounds 12, 14, 17, 13 and 18 (number of animals), respectively. The other two groups were controls (n=8, isoproterenol alone pretreated with carrier) and those treated with a known β-blocker, dl-propranolol (n=3). Ech animal was anesthetized with sodium pentobarbital (45 mg/kg) and the carotid artery was cannulated with PE-50 tubing. The cannula was subcutaneously threaded around the neck and exteriorized dorsally between the shoulder blades. Th cannula was filled with a heparin solution (300 μg/mL) and sealed with a solid 22 gauge stylet. The animals were housed in individual stainless steel cages, and two days were allowed for recovery from the surgery. Food and water were provided ad libitum. On the day of the experiment, the blood pressure and heart rate of each rat were monitored with a pressure transducer (Narco-Bio model P-1000) and the data recorded on a four-channel physiograph (Narco-Bio systems Marck IV). One hour was allowed as an equilibration period before any drugs were administered. All beta blockers were administered intraperitoneally at a dose of 6 mg/kg. Compounds 12 and 14 and dl-proranolol were dissolved in normal saline while compounds 13, 17 and 18 were dissolved in an ethanol: water solution (3:1). Depending on the trial, controls were administered the appropriate carrier. One hour after administration of the blocker, isoproterenol (Isuprel®, Wintrop Laboratories) was administered subcutaneously at a dose of 25 μg/kg. Blood pressures and heart rate also were recorded 3, 5, 10, 15, 20, 30, 45 and 60 minutes after isoproterenol administration. Both control and experimental animals were unrestrained and free moving in their home cage throughout the experiment. […] However, significant differences in the mean heart rate response amoung the 7 groups were observed: *p<0.005;**p<0.025. Comparisons between groups were made by the Newman-Keuls procedure with significance set at the 95% confidence interval. […] All data are shown as mean±standard error of the mean.

Data set [2] in a line: Hydrolytic rate in 0.01 N aqueous sodium hydroxide, pH 12.0. The format is physicochemical. As to conditions: for Observed pseudo first order hydrolytic rate constant k: 0.01 N NaOH, ± SEM; for Observed pseudo first order hydrolytic rate constant k / half-life: pH 12.0, ionic strength 0.10 M (NaCl), 27.3 ± 0.2° C.; for half-life: 0.01 n naoh, pH 12, 0.01 N NaOH, read-out: Half-life t1/2. The procedure:
(§1) Analytical Methods. A high pressure liquid chromatography (HPLC) method was developed for the determination of the rate constants. The chromatographic analysis was performed in a system consisting of Waters Associates Model 600-A Solvent Delivery System, Model U-6K Injector and Model 440 Dual Channel Absorbance Detector operated at 254 and 280 nm. A 30 cm×3.9 mm (internal diameter) reverse phase μBondpack C18 column (Waters Associates), operated at ambient temperature, was used for all separations. When plasma samples were analyzed, the column was protected with a 2.3 cm×3.9 mm (internal diameter) Guard Column (Waters) packed with μBondpack C18/Corasil packing material. The mobile phase used for the separation of 17 and its degradation product, 5, consisted of water, 1-hexane sulfonic acid in acetic acid (B-6 reagent, Waters), 0.1M triethanolamine and methanol (100:1:100:799). […] For the separation of compounds 10-16 and 18 and their degradation product 5, a mobile phase consisting of water, 1-hexane sulfonic acid in acetic acid (B-6 reagent, Waters), 0.1M triethanolamine and methanol (390:1:10:599) was used.
(§2) Determination of the Hydrolytic Rate Constants in Aqueous Solutions. A 0.01M phosphate buffer and 0.01N sodium hydroxide solution were prepared from freshly distilled deionized water. This ionic strength was maintained at 0.1M with sodium chloride. The pH of the phosphate buffer was determined at 37.0° C. with a pH meter standardized at this temperature. For determination of the hydrolytic rate constants, a fresh concentrated solution of the ester in methanol was added to the hydrolytic medium previously equilibrated to the desired temperature and mixed thoroughly to result in an initial concentration of about 5×10^-4 mol. liter^-1. All reactions were run under pseudo first order conditions. Samples of 25 μL were injected into the column at various time intervals and the pseudo first order rate constants were determined from disappearance of the compound by linear regression of natural logarithm of the peak height versus time plots. The half-life and standard error of the rate constant were calculated for each run.

The nature of data set [3]: Enzymatic hydrolytic cleavage in human plasma. In kind it is in vitro ADME. The following applies: for Observed first order hydrolytic rate constant k: ± SEM; for half-life at 1000 µM: human, plasma; for hydrolysis in human plasma: three hours where stated. The procedure: as §1, §2
Determination of the Enzymatic Hydrolytic Cleavage Rates in Human Plasma. The freshly collected plasma used was obtained from the Civitan Regional Blood Center, Inc. (Gainesville, Fla.) and contained about 80% plasma diluted with anticoagulant citrate phosphate dextrose solution, U.S.P. The plasma was stored in a refrigerator and used within one week from the date it was collected.
A portion of 50 μL of a freshly prepared solution of the compound in methanol was added to 10 mL plasma, previously equilibrated at 37.0° C. in a water bath, and mixed thoroughly to result in an initial concentration of 1×10^-3 mol. liter^-1. One mL samples of plasma were withdrawn from the test medium, mixed immediately with 4.0 mL ice cold 95% v/v ethanol, centrifuged and the supernatant analyzed by HPLC. The first order hydrolytic rate constant was determined as before in the aqueous solutions and the results are listed in TABLE II below.

In data set [4] the test system is heart rate response to isoproterenol (β-adrenergic). Kind of data set: Cardiovascular experiments in dogs: blockade of isoproterenol heart rate response. As to conditions: for Duration, Mean (time at which response to isoproterenol had returned to control levels) / Duration, Range (time at which response to isoproterenol had returned to control levels) / Maximal blockade, Mean (time necessary to reach maximal blockade) / Maximal blockade, Range (time necessary to reach maximal blockade): 1 mg/kg i.v.; for Maximal blockade, Mean (time necessary to reach maximal blockade) / Maximal blockade, Range (time necessary to reach maximal blockade): 15 minute measurements. In kind it is in vivo, mongrel dogs. The method, then:
Method. Healthy, mongrel dogs were anesthetized with a combination of morphine sulfate (2.0 mg/kg, subcutaneously) followed in 20 minutes with pentabarbital sodium (15 mg/kg, intravenously). Supplemental pentabarbital was given as necessary. A femoral vein was catheterized with polyethylene tubing to the level of the heart for injecting drug solutions. A polyethylene tube filled with heparinized saline was inserted through the femoral artery and advanced to the thoracic aorta for the measurement of arterial pressure. The left carotid artery was cannulated with a Millar® transducer-tip catheter for measurement of left ventricular pressure (LVP). The rising slope of the LVP signal was differentiated to give dP/dt, an estimate of myocardial contractility. Heart rate was determined via a Grass cardiotachometer triggered by the R wave of the lead II EKG. All variables were recorded on a Grass polygraph.
Dose-response curves were constructed for each experimental variable to graded i.v. doses of the β-adrenergic agonist, isoproterenol. A period of 3-5 minutes was allowed after each injection for variables to return to base-line. Following this, one of the four experimental β-adrenergic blocking agents was given i.v. over a one-minute period. Abbreviated dose-response curves (2-3 dose points) were again constructed to isoproterenol at 15, 30, 45, 60, 75 and 90 minutes after the administration of the test blockers. Using a 50-beat per minute (bpm) increase in heart rate as criteria, the degree of blockade was determined by dividing the dose of isoproterenol needed to produce a 50 bpm increase at various times following administration of an antagonists by the dose needed for this effect during the control period. The doses of the experimental β-adrenergic antagonists given were determined from previous experiments to produce an approximate two- or four-fold blockade of the heart rate response to isoproterenol.

[5] abbreviates: 37.0 ± 0.1° C., read-out: Half-life t1/2.

Where a name gives a salt, the structure may show the parent alone. Read-outs that look alike come from different tables or passages of the source.

For `CC(C)NCC(O)COc1cccc2ccccc12` (racemic) [d,l-propranolol, dl-propranolol, reference compound], in data set [1], the “resting heart rate prior to administration of isoproterenol” value (from here on “resting heart rate prior”) is on record as 320±23 beat/minute.

Consider `CCOC(=O)Cc1ccc(OCC(O)CNC(C)C)cc1` (centres unmarked) [Compound 10, Ethyl 4-(2-hydroxy-3-isopropylamino)-propoxyphenylacetate], for which, in data set [2], the “Observed pseudo first order hydrolytic rate constant k” value came out at 0.117 ± 0.001 min⁻¹ and the half-life stood at 5.91 min. Moreover, the “Observed first order hydrolytic rate constant k” value in data set [3] (37.0 ± 0.1° C.) stood at 0.238 ± 0.010 min⁻¹. Moreover, the half-life at 1000 µM in data set [3] (setting [5]) is 2.91 min. In data set [4], the “Duration, Mean (time at which response to isoproterenol had returned to control levels)” value (shortened to “Duration, Mean”) is recorded as ~ 50 min; the “Duration, Range (time at which response to isoproterenol had returned to control levels)” value (from here on “Duration, Range”) is 45 to 60 min; the “Maximal blockade, Mean (time necessary to reach maximal blockade)” value (from here on “Maximal blockade, Mean”) is 15 min; the “Maximal blockade, Range (time necessary to reach maximal blockade)” value (“Maximal blockade, Range” for short) was 15-15 min.

Consider `CC(C)NCC(O)COc1ccc(CC(=O)OC(C)C)cc1` (centres unmarked) [Compound 12, Isopropyl 4-(2-hydroxy-3-isopropylamino)propoxyphenylacetate], for which, in data set [2], the “Observed pseudo first order hydrolytic rate constant k” value was 2.07 ± 0.03 × 10^-2 min^-1 and the half-life came to 33.5 min. Further, the “hydrolyzed up to x times more slowly than many of the other esters” value in data set [3] was “up to 100 times”. Further, in data set [3] (37.0 ± 0.1° C.), the “Observed first order hydrolytic rate constant k” value was 0.414 ± 0.001 × 10^-2 min^-1. Besides, in data set [3] (setting [5]), the half-life at 1000 µM was found to be 167 min. Moreover, in data set [1], the “resting heart rate prior” value is on record as 345±19 beat/minute.

Consider `CC(C)NCC(O)COc1ccc(CC(=O)OC2CCCCC2)cc1` (centres unmarked) [Compound 15, Cyclohexyl 4-(2-hydroxy-3-isopropylamino)propoxyphenylacetate oxalate 3/4 hydrate], for which, in data set [2], the “Observed pseudo first order hydrolytic rate constant k” value is 4.96 ± 0.03 × 10^-2 min^-1 and the half-life came to 14 min. Further, the “Observed first order hydrolytic rate constant k” value in data set [3] (37.0 ± 0.1° C.) worked out at 1.46 ± 0.15 min⁻¹. Also, the half-life at 1000 µM in data set [3] (setting [5]) was 0.47 min. In addition, the half-life at 1000 µM in data set [3] (shortest, read-out: plasma hydrolytic half-life) was less than 1 min. Besides, in data set [4], the “Duration, Mean” value is recorded as ~ 85 min; the “Duration, Range” value lay within 75 to 90 min; the “Maximal blockade, Mean” value is reported as 20 min; the “Maximal blockade, Range” value lay within 15 to 30 min. Besides, in data set [4] (i.v.), the “duration of action” value is reported as “longest duration of action” and the “time after administration at which antagonism dissipated / heart rate responsiveness returned to control” value was “approximately 90 minutes”. In data set [4] (i.v., FIG. 4), the “β1-antagonist activity / blocking of cardiac effects of isoproterenol” value was “most potent in blocking the cardiac effects of isoproterenol”.

In the case of `CC(C)NCC(O)COc1ccc(CC(=O)OC2C(C)CCCC2C)cc1` (centres unmarked) [Compound 16, 2,6-Dimethylcyclohexyl 4-(2-hydroxy-3-isopropylamino)propoxyphenylacetate oxalate hydrate], the “hydrolysis kinetics” value in data set [2] (pH 12, 1:2 mixture of two isomers) is given as “biphastic kinetics”. In addition, the “hydrolysis in human plasma” value in data set [3] (37.0 ± 0.1° C., oxalate hydrate) was “did not hydrolyze in the plasma within 3 hours”. Further, the “Observed first order hydrolytic rate constant k” value in data set [3] (37.0 ± 0.1° C.) is reported as 1.64 ± 0.14 × 10^-2 min^-1. The half-life at 1000 µM in data set [3] (setting [5]) amounted to 42.2 min. Also, in data set [4], the “Duration, Mean” value is on record as ~ 65 min; the “Duration, Range” value lay in the range of 45 to 90 min; the “Maximal blockade, Mean” value is given as 38 min; the “Maximal blockade, Range” value is 15 to 60 min. Besides, in data set [4] (i.v.), the “duration of action” value is “much more variable and generally longer”.

For `CCCCOC(=O)Cc1ccc(OCC(O)CNC(C)(C)C)cc1` (centres unmarked) [Compound 18, n-Butyl 4-(2-hydroxy-3-tert-butylamino)propoxyphenylacetate oxalate hydrate], in data set [2], the “Observed pseudo first order hydrolytic rate constant k” value is given as 7.19 ± 0.04 × 10^-2 min^-1 and the half-life stood at 9.64 min. In data set [3] (37.0 ± 0.1° C.), the “hydrolysis in human plasma” value was “did not affect the hydrolysis rates” and the “Observed first order hydrolytic rate constant k” value is 0.351 ± 0.019 min⁻¹. Further, the half-life at 1000 µM in data set [3] (setting [5]) worked out at 1.98 min. Also, the “resting heart rate prior” value in data set [1] is 307±7 beat/minute.

As to `CC(C)NCC(O)COc1cccc2ccccc12` (centres unmarked) [propranolol, reference compound], the “mean heart rate response to isoproterenol, comparison between groups” value in data set [1] (1 hour before isoproterenol 25 μg/kg s.c., Newman-Keuls, first 20 minutes (17) or first 30 minutes (propranolol)) was “significantly different for the first 30 minutes”. In data set [1] (10 through 45 minutes following isoproterenol), the “mean heart rate response to isoproterenol vs groups treated with compound 12 and 18” value was “significantly different than the groups treated with compound 12 and 18”.

Source of the values: patent US4829086A, “Soft β-adrenergic blocking agents” (priority 1985, dated 1989).
